Columns and labels:
[1] = molecular target: human TNIK (N-terminal segment, TNIK_N, residues 1-314) (Homo sapiens (Human), UniProt Q9UKE5); assay: TNIK kinase assay (mobility shift); format: biochemical; conditions: TNIK_N kinase activity, 25 μM ATP, 1 h at room temperature
Method in brief: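 GST-tagged human TNIK residues 1-314 (Sf21 baculovirus) at 0.08 ng/μl phosphorylated 1 μM FITC-peptide with 25 μM ATP. Buffer: 20 mM Hepes pH 7.5, 5 mM MgCl2, 2 mM DTT, 1% DMSO; 1 h at room temperature, stopped with EDTA. Mobility-shift detection; activity = P/(P+S).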

[2] = test system: human colon cancer cell line HCT-116; assay: In vitro cell proliferation assay; format: cell-based; conditions: HCT-116 cell number, 72 hours of treatment
Protocol: In Vitro Cell Proliferation Assay
The human colon cancer cell line HCT-116 was seeded at 600 cells/well in 96 well-plate (ThermoFisher) using RPMI medium containing 2 mM L-glutamine (Invitrogen) supplemented with 10% FCS (Invitrogen) and 1% penicillin/streptomycin (Sigma) and maintained at 37° C., 5% CO2 and 100% humidity. The following day, old medium was withdrawn and the fresh medium was added. Initial numbers of cells were counted before adding compounds. Then cells were treated in duplicates with compounds (a half-logarithmic serial dilution from 10 μM). Eight untreated control wells were incubated in each plate. After 72 hours of treatment, cells were fixed with 2% paraformaldehyde, and the nucleus were stained with Hoechst 33258 (Invitrogen). The numbers of cells were counted with ArrayScan™ VTI (ThermoFisher Scientific).

human TNIK (N-terminal segment, TNIK_N, residues 1-314), sequence (Q9UKE5 1-314): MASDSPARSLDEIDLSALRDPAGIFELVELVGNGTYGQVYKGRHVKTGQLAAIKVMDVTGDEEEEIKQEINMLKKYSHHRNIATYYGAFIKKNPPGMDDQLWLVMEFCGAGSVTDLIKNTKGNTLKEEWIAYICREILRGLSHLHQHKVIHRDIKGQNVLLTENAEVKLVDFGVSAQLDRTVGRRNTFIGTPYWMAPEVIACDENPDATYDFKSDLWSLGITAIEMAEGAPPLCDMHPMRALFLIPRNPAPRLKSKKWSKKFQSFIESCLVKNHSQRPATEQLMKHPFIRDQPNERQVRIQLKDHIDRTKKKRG

| SMILES | IC50 [1] | IC50 [2] |
| --- | --- | --- |
| CC(=O)Nc1ccc(C(=O)Nc2sc(Nc3ccc4ccccc4c3)nc2C(N)=O)cc1 [Example 2, 5-(4-acetamidobenzamido)-2-(naphthalen-2-ylamino)thiazole-4-carboxamide] | 19.8 nM | < 100 nM |
| NC(=O)c1nc(Nc2ccc3ccccc3c2)sc1NC(=O)c1ccc(F)cc1 [Example 8, 5-(4-fluorobenzamido)-2-(naphthalen-2-ylamino) thiazole-4-carboxamide] | – | 100 to 1000 nM |
| NC(=O)c1nc(Nc2ccc3ccccc3c2)sc1NC(=O)c1ccc(NCCO)cc1 [Example 10, 5-[4-(2-hydroxyethylamino)benzamido]-2-(naphthalen-2-ylamino)thiazole-4-carboxamide] | 10.6 nM | < 100 nM |
| CN(C)CCNc1ccc(C(=O)Nc2sc(Nc3ccc4ccccc4c3)nc2C(N)=O)cc1 [Example 11, 5-{4-[2-(dimethylamino)ethylamino]benzamido}-2-(naphthalen-2-ylamino)thiazole-4-carboxamide] | 8.6 nM | < 100 nM |
| CN1CCN(c2ccc(C(=O)Nc3sc(Nc4ccc5ccccc5c4)nc3C(N)=O)cc2)CC1 [Example 12, 5-[4-(4-methylpiperazin-1-yl)benzamido]-2-(naphthalen-2-ylamino)thiazole-4-carboxamide] | 10.2 nM | 100 to 1000 nM |
| NC(=O)c1nc(Nc2ccc3ccccc3c2)sc1NC(=O)c1ccc(NCCN2CCCCC2)cc1 [Example 13, 2-(naphthalen-2-ylamino)-5-{4-[2-(piperidin-1-yl)ethylamino]benzamido}thiazole-4-carboxamide] | 8 nM | < 100 nM |
| NC(=O)c1nc(Nc2ccc3ccccc3c2)sc1NC(=O)c1ccc(N2CCOCC2)cc1 [Example 15, 5-(4-morpholinobenzamido)-2-(naphthalen-2-yl-amino)thiazole-4-carboxamide] | – | < 100 nM |
| NC(=O)c1nc(Nc2ccc3ccccc3c2)sc1NC(=O)c1ccc(N)cc1 [Example 16, 5-(4-aminobenzamido)-2-(naphthalen-2-ylamino) thiazole-4-carboxamide] | 20.3 nM | < 100 nM |
| CN1CCN(Cc2ccc(C(=O)Nc3sc(Nc4ccc5ccccc5c4)nc3C(N)=O)cc2)CC1 [Example 17, 5-{4-[(4-methylpiperazin-1-yl)methyl]benzamido}-2-(naphthalen-2-ylamino)thiazole-4-carboxamide] | 5.1 nM | < 100 nM |
| NC(=O)c1nc(Nc2ccc3ccccc3c2)sc1NC(=O)c1ccc(CN2CCOCC2)cc1 [Example 18, 5-[4-(morpholinomethyl)benzamido]-2-(naphthalen-2-ylamino)thiazole-4-carboxamide] | 8.6 nM | < 100 nM |
| NC(=O)c1nc(Nc2ccc3ccccc3c2)sc1NC(=O)c1ccc(CN2CCNCC2)cc1 [Example 19, 2-(naphthalen-2-ylamino)-5-[4-(piperazin-1-ylmethyl)benzamido]thiazole-4-carboxamide] | – | 100 to 1000 nM |
| CN(C)Cc1ccc(C(=O)Nc2sc(Nc3ccc4ccccc4c3)nc2C(N)=O)cc1 [Example 20, 5-{4-[(dimethylamino)methyl]benzamido}-2-(naphthalen-2-ylamino)thiazole-4-carboxamide] | – | < 100 nM |
| NC(=O)c1nc(Nc2ccc3ccccc3c2)sc1NC(=O)c1ccc(NC(=O)CO)cc1 [Example 21, 5-[4-(2-hydroxyacetamido)benzamido]-2-(naphthalen-2-ylamino)thiazole-4-carboxamide] | – | < 100 nM |
| NCc1ccc(C(=O)Nc2sc(Nc3ccc4ccccc4c3)nc2C(N)=O)cc1 [Example 23, 5-(4-aminomethylbenzamido)-2-(naphthalen-2-yl-amino)thiazole-4-carboxamide] | 5.3 nM | 100 to 1000 nM |
| CN1CCN(c2ccc(C(=O)Nc3sc(Nc4ccc5ncccc5c4)nc3C(N)=O)cc2)CC1 [Example 24, 5-[4-(4-methylpiperazin-1-yl)benzamido]-2-(quinolin-6-ylamino)thiazole-4-carboxamide] | 4.1 nM | 1000 to 10000 nM |
| CN1CCN(c2ccc(C(=O)Nc3sc(Nc4cccc5ncccc45)nc3C(N)=O)cc2)CC1 [Example 26, 5-[4-(4-methylpiperazin-1-yl)benzamido]-2-(quinolin-5-ylamino)thiazole-4-carboxamide] | 15.6 nM | 1000 to 10000 nM |
| CN1CCN(c2ccc(C(=O)Nc3sc(Nc4cccc5cccnc45)nc3C(N)=O)cc2)CC1 [Example 27, 5-[4-(4-methylpiperazin-1-yl)benzamido]-2-(quinolin-8-ylamino)thiazole-4-carboxamide] | 19.1 nM | 1000 to 10000 nM |

| SMILES | IC50 [1] | IC50 [2] |
| --- | --- | --- |
| CN1CCN(c2ccc(C(=O)Nc3sc(N(C)c4ccc5ncccc5c4)nc3C(N)=O)cc2)CC1 [Example 28, 2-[methyl(quinolin-6-yl)amino]-5-[4-(4-methylpiperazin-1-yl]benzamido)thiazole-4-carboxamide] | 17 nM | 100 to 1000 nM |
| Cc1ccc(C(=O)Nc2sc(Nc3ccc4ccccc4c3)nc2C(N)=O)s1 [Example 34, 5-(5-methylthiophene-2-carboxamido)-2-(naph-thalen-2-ylamino)thiazole-4-carboxamide] | – | < 100 nM |
| NC(=O)c1nc(Nc2ccc3ccccc3c2)sc1NC(=O)c1cc2sccc2[nH]1 [Example 35, N-[4-carbamoyl-2-(naphthalen-2-ylamino)thiazol-5-yl]-4H-thieno[3,2-b]pyrrole-5-carboxamide] | 22.7 nM | 100 to 1000 nM |
| NC(=O)c1nc(Nc2ccc3cnccc3c2)sc1NC(=O)c1ccsc1 [Example 46, 2-(isoquinolin-6-ylamino)-5-(thiophene-3-carbox-amido)thiazole-4-carboxamide] | 12 nM | 100 to 1000 nM |
| NC(=O)c1nc(Nc2cccc3ncccc23)sc1NC(=O)c1csc(CN2CCOCC2)c1 [Example 49, 5-[5-(morpholinomethyl)thiophene-3-carbox-amido]-2-(quinolin-5-ylamino)thiazole-4-carboxamide] | – | 1000 to 10000 nM |
| CN1CCN(Cc2cc(C(=O)Nc3sc(Nc4ccc5ccccc5c4)nc3C(N)=O)cs2)CC1 [Example 60, 5-{5-[(4-methylpiperazin-1-yl)methyl]thiophene-3-carboxamido}-2-(naphthalen-2-ylamino) thiazole-4-carboxamide] | – | < 100 nM |
| CN1CCN(c2ccc(C(=O)Nc3sc(N(C)c4ccc5ccccc5c4)nc3C(N)=O)cc2)CC1 [Example 65, 2-[methyl(naphthalen-2-yl)amino]-5-[4-(4-methyl-piperazin-1-yl)benzamido]thiazole-4-carboxamide] | 36.3 nM | 1000 to 10000 nM |
| NC(=O)c1nc(Nc2ccnc3ccccc23)sc1NC(=O)c1csc(CN2CCOCC2)c1 [Example 67] | – | 1000 to 10000 nM |
| COc1ccc2cc(Nc3nc(C(N)=O)c(NC(=O)c4ccsc4)s3)ccc2c1 [Example 73, 2-[(6-methoxynaphthalen-2-yl)amino]-5-(thio-phene-3-carboxamido)thiazole-4-carboxamide] | – | 1000 to 10000 nM |
| NC(=O)c1nc(Nc2ccc3ccccc3c2)sc1NC(=O)c1ccc(NCCOCCO)cc1 [Example 78, 5-(4-{[2-(2-hydroxyethoxy)ethyl]amino}benz-amido)-2-(naphthalen-2-ylamino)thiazole-4-carbox-amide] | – | < 100 nM |
| CC(C)=CC(=O)Nc1sc(Nc2ccc3ccccc3c2)nc1C(N)=O [Example 83, 5-(3-methylbut-2-enamido)-2-(naphthalen-2-yl-amino)thiazole-4-carboxamide] | 12.7 nM | 1000 to 10000 nM |
| CN1CCN(CCCCCC(=O)Nc2sc(Nc3ccc4ccccc4c3)nc2C(N)=O)CC1 [Example 91, 5-[6-(4-methylpiperazin-1-yl)hexanamido]-2-(naphthalen-2-ylamino)thiazole-4-carboxamide] | – | 100 to 1000 nM |
| NC(=O)c1nc(Nc2ccc3ccccc3c2)sc1NC(=O)c1ccc(N2CCC(O)CC2)cc1 [Example 97, 5-[4-(4-hydroxypiperidin-1-yl)benzamido]-2-(naphthalen-2-ylamino)thiazole-4-carboxamide] | 12.7 nM | < 100 nM |
| NC(=O)c1nc(Nc2ccc3ccccc3c2)sc1NC(=O)c1ccc(Cn2cncn2)cc1 [Example 195, 5-{4-[(1H-1,2,4-triazol-1-yl)methyl]benzamido}-2-(naphthalen-2-ylamino)thiazole-4-carboxamide] | 2.5 nM | < 100 nM |
| NC(=O)c1nc(Nc2ccc3ccccc3c2)sc1NC(=O)c1ccc(Cn2cnnn2)cc1 [Example 205, 5-(4-[(1H-tetrazol-1-yl)methyl)benzamido]-2-(naphthalen-2-ylamino)thiazole-4-carboxamide] | 5.9 nM | < 100 nM |
| NC(=O)c1nc(Nc2ccc3ccccc3c2)sc1NC(=O)c1ccc(Cn2ccnc2)cc1 [Example 208, 5-{4-[(1H-imidazol-1-yl)methyl]benzamido}-2-(naphthalen-2-ylamino)thiazole-4-carboxamide] | 3 nM | < 100 nM |
